In US20070197602A1, “Combined pharmaceutical composition” (priority 2004, published 2007):

System: streptozotocin-induced diabetic model
Assay: Test Example 3: sucrose loading in streptozotocin-induced diabetic model, plasma glucose (GLU)
Type: in vivo, rat
Conditions: STZ rats; for GLU concentration before loading: Day 23, after oral once a day for 9 days, plasma glucose; for GLU concentration before loading / GLU concentration after loading / Rate of Change (GLU concentration after loading relative to before loading): metformin 50 mg/kg, voglibose 0.2 mg/kg, fenofibrate 50 mg/kg; for GLU concentration after loading: Day 24, 60 minutes after sucrose 2.5 g/kg oral given immediately after test article; for blood sugar level change by the sucrose loading (in words) / Rate of Change (GLU concentration after loading relative to before loading): sucrose loading 2.5 g/kg; for blood sugar level change by the sucrose loading (in words): STZ-treated control increased about 20%
Protocol: At 13 days after administration (Day 13), blood was collected from the rats, and plasma glucose (GLU) concentration was measured. […] From Day 14 (14 days after STZ administration), test articles shown in Table 1 were orally administered to the rats once a day for 9 days. At 23 days after STZ administration (Day 23), the GLU concentration was measured (previous value: GLU concentration before sucrose loading) (incidentally, the test articles were not administered on Day 23). […] Moreover, “N” represents the number of rats for determining the GLU concentration in the Table.

CC(C)OC(=O)C(C)(C)Oc1ccc(C(=O)c2ccc(Cl)cc2)cc1 [Fenofibrate]
GLU concentration before loading: 4.26 ± 0.55 g/L
GLU concentration after loading: 4.78 ± 0.34 g/L

CN(C)C(=N)N=C(N)N [Metformin]
GLU concentration before loading: 4.57 ± 0.36 g/L
GLU concentration after loading: 5.41 ± 0.38 g/L
blood sugar level change by the sucrose loading (in words): increased
Rate of Change (GLU concentration after loading relative to before loading): 118.4%

OCC(CO)N[C@H]1C[C@](O)(CO)[C@@H](O)[C@H](O)[C@H]1O [Voglibose]
GLU concentration before loading: 4.30 ± 0.47 g/L
GLU concentration after loading: 4.50 ± 0.42 g/L
blood sugar level change by the sucrose loading (in words): inhibited
Rate of Change (GLU concentration after loading relative to before loading): 104.7%
